Experimental findings from patent US20220401514A1, “ANTIMICROBIAL, BACTERIOPHAGE-DERIVED POLYPEPTIDES AND THEIR USE AGAINST GRAM-NEGATIVE AND ACID-FAST BACTERIA” (CONTRAFECT CORPORATION, priority 2019, published 2022) are described below.

In experiment [1] the test system is Enterobacter cloacae. Put plainly: microbe, parasite or virus in culture. It counts as cell-based. The method in brief:
(§1)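 Medium: CAA with added human serum. Peptides tested for minimal inhibitory concentration against each strain.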

The test system of experiment [2] is Escherichia coli. Put plainly: microbe, parasite or virus in culture. It counts as cell-based. The conditions noted are these: for MIC (in brackets beside MBEC): control agents of Table 8. An outline of the steps: as §1
The subject of experiment [3] is LPS. Put plainly: Endotoxin neutralization, limulus amoebocyte lysate (LAL) enzyme assay, LPS binding. Particulars: LPS 0.8 EU/mL; for LPS binding: […]-64 μg/mL, 24° C., 1 hour. It counts as biochemical. The protocol: CHEM. […] The standard reference samples contained only LPS dissolved in pyrogen-free water. Solutions were mixed well and incubated at 24° C. for 1 hour, and the manufacturers' test procedure for quantitative detection of endotoxins was followed.

For experiment [4], the system named is Acinetobacter baumannii. Briefly: microbe, parasite or virus in culture. It is filed as cell-based.
Experiment [5] concerns P. aeruginosa strain PAO1. Briefly: MIC against PAO1 in Mueller-Hinton broth with 50% human plasma or human serum. The conditions noted are these: PAO1; for Minimal inhibitory concentration, Human Plasma: Mueller-Hinton broth with 50% human plasma; for Minimal inhibitory concentration, Human Serum: Mueller-Hinton broth with human serum. It is filed as cell-based, Pseudomonas aeruginosa.

Experiment [6] has as its system eight different strains of five species of Gram-negative bacteria. Briefly: MBEC in eight strains of five species of Gram-negative bacteria. It is filed as cell-based. The conditions noted are these: 24 h biofilm in LB, 16 h treatment. Here is the method:
Determination of Minimal Biofilm Eradicating Concentrations (MBEC). […] The OD600 of extracted crystal violet was determined. The MBEC value of each sample was determined as the minimum drug concentration required to remove >95% of biofilm biomass as assessed by crystal violet quantitation (in comparison to untreated controls).
MBEC values were likewise determined for Chp2, Chp2-M1, and Chp10-M1 in eight different strains of five species of Gram-negative bacteria. […] The films were then washed and stained with crystal violet to visualize the MBEC.

Experiment [7] deals with Klebsiella pneumoniae. Put plainly: microbe, parasite or virus in culture. It is filed as cell-based. The conditions noted are these: control agents of Table 8.
Experiment [8] concerns Pseudomonas aeruginosa. Briefly: microbe, parasite or virus in culture. It is filed as cell-based. Particulars: P. aeruginosa (ATCC 27853); control agents of Table 8.
The subject of experiment [9] is A. baumannii strain BAA-747 persister cells. Put plainly: Activity against persister cells, A. baumannii. It is filed as cell-based, Acinetobacter baumannii. The conditions noted are these: A. baumannii BAA-747 persister cells; for MIC Log10 (CFU/mL) Run #1 / MIC Log10 (CFU/mL) Run #2 / MIC Log10 (CFU/mL) Run #3: 1 hour at 37° C., limit of detection 1.6-log10 CFU/mL; for MIC Log10 (CFU/mL) Average: average of 3 runs; for Delta Log: log10 CFU/mL reduction as compared to buffer.

For experiment [10], the system named is P. aeruginosa strain PA20 persister cells. Briefly: Activity against persister cells, P. aeruginosa. Particulars: P. aeruginosa PA20 persister cells; for Delta Log: log10 CFU/mL reduction as compared to buffer. It is filed as cell-based, Pseudomonas aeruginosa.
The subject of experiment [11] is carbapenem-resistant P. aeruginosa clinical isolate CFS-1292. Put plainly: MIC by modified CLSI broth microdilution against P. aeruginosa CFS-1292 (CAA, CAA + human serum). It counts as cell-based, Pseudomonas aeruginosa.
Experiment [12] relates to Klebsiella pneumoniae. It is filed as cell-based. The conditions noted are these: Klebsiella pneumoniae HM-44; CAA supplemented with human serum. Here is the method:
Determination of Minimal Inhibitory Concentrations (MIC).
Additional MIC testing was performed for several peptides against the ESKAPE pathogens Escherichia coli, Enterobacter cloacae, Klebsiella pneumoniae, and Acinetobacter baumannii, in CAA supplemented with human serum (Table D).

The subject of experiment [13] is M. smegmatis. Put plainly: 45 hr MIC against M. smegmatis (NTM), Mueller Hinton broth. It is filed as cell-based, Mycobacterium smegmatis. Particulars: M. smegmatis MC^2 155, Run #1.
Experiment [14] has as its system Stenotrophomonas-containing biofilm on explanted hemodialysis catheters. Briefly: Antibiofilm activity in explanted hemodialysis catheters. It is filed as cell-based, Stenotrophomonas spp. Here is the method: The explanted hemodialysis catheters were cut into equal length segments and bisected to expose the lumen.
The samples were treated for 4 hours at 37° C. before rinsing with Lactated Ringer's solution.
Three additional infected hemodialysis catheter samples were removed from two patients (one catheter from a first patient and two catheters from a second patient). […] The samples were incubated at 37° C. for 4 hours.

Setting [15] is: peptide concentration 0.5 μg/mL.
Where [16] appears, read: Run #1, limit of detection 2-log10 CFU/mL.
Where [17] appears, read: Run #2, limit of detection 2-log10 CFU/mL.
Setting [18] is: Run #3, limit of detection 2-log10 CFU/mL.

A value given as a limit tells only on which side of the number the result lay.

In the case of LL-37 [reference compound], the “MIC (in brackets beside MBEC)” value was “(16) μg/mL” in experiment [1] (E. cloacae (CCUG 63317), control agents of Table 8); “(16) μg/mL” in experiment [2] (E. coli (ATCC 25922)); “(16) μg/mL” in [2] (E. coli (ATCC 35329)); “(16) μg/mL” in [2] (E. coli (EC2)); “(16) μg/mL” in [4] (A. baumanni (ATCC BAA-747), control agents of Table 8); “(16) μg/mL” in experiment [7] (K. pneumoniae (ATCC 700603)). Also, the “MIC (in brackets beside MBEC)” value in experiment [7] (K. pneumoniae (KP1)) and in [8] was “(16) μg/mL” throughout. For the same substance, the LPS binding entry in experiment [3] is “dose-dependent increases in LPS binding”. The “% LPS Bound” value in experiment [3] (setting [15]) amounted to 90.6%; in experiment [3] (peptide concentration 1 μg/mL), 92.2%; in [3] (peptide concentration 2 μg/mL), 92.9%; in [3] (peptide concentration 4 μg/mL), 92.3%; in experiment [3] (peptide concentration 8 μg/mL), 92.4%; in experiment [3] (peptide concentration 16 μg/mL), 92.1%. Also, the “% LPS Bound” value in experiment [3] (peptide concentration 32 μg/mL) is listed as 87.3%; in experiment [3] (peptide concentration 64 μg/mL) it was 75.4%. Further, the “Minimal inhibitory concentration, Human Plasma” value in experiment [5] was greater than 64 µg/mL. Also, in [5], the “Minimal inhibitory concentration, Human Serum” value was greater than 64 µg/mL. Besides, the MBEC in experiment [6] (A. baumanni (ATCC BAA-747)) amounted to 0.25 µg/mL; in experiment [6] (E. cloacae (CCUG 63317)), 8 µg/mL; in experiment [6] (E. coli (ATCC 25922)), 16 µg/mL; in experiment [6] (E. coli (ATCC 35329)), 16 µg/mL; in experiment [6] (E. coli (EC2)), 8 µg/mL; in [6] (K. pneumoniae (ATCC 700603)), 32 µg/mL. Further, the MBEC stood at 16 µg/mL in experiment [6] (K. pneumoniae (KP1)) and 8 µg/mL in [6] (P. aeruginosa (ATCC 27853)).
As to Lysozyme, in experiment [9], the “MIC Log10 (CFU/mL) Run #1” value is 3.5 Log10 (CFU/mL), the “MIC Log10 (CFU/mL) Run #2” value was 5.2 Log10 (CFU/mL), the “MIC Log10 (CFU/mL) Run #3” value was 5.0 Log10 (CFU/mL) and the “MIC Log10 (CFU/mL) Average” value is 4.6 Log10 (CFU/mL). For the same substance, in experiment [9], the “Delta Log” value was 0.3. Moreover, the “Viable persister count after treatment (log10 CFU/mL)” value in experiment [10] (setting [16]) is 4.7 Log10 (CFU/mL). In addition, the “Viable persister count after treatment (log10 CFU/mL)” value in [10] (setting [17]) is 4.4 Log10 (CFU/mL). In experiment [10] (setting [18]), the “Viable persister count after treatment (log10 CFU/mL)” value is listed as 4.2 Log10 (CFU/mL). The “Viable persister count after treatment (log10 CFU/mL)” value in experiment [10] (average of 3 runs) is 4.4 Log10 (CFU/mL). For the same substance, the “Delta Log” value in experiment [10] turned out to be 0.0.
For “MAEQYELSQEQSEQLFSETALQMHEQNELQEIMQGGIEF [Chp5]”, the MIC in experiment [1] (Enterobacter cloacae ATCC 13047, CAA supplemented with human serum) was greater than 32 µg/mL; in experiment [2] (Escherichia coli ATCC 25922, CAA supplemented with human serum), 4 µg/mL; in experiment [4] (Acinetobacter baumannii ATCC BAA 747, CAA supplemented with human serum) it was greater than 32 µg/mL; in experiment [12], 8 µg/mL. Besides, the “MIC (μg/mL) against CFS-1292 in 100% CAA (1st run/2nd run)” value in experiment [11] (100% CAA, 1st run or single value) was greater than 32 µg/mL. Further, in [11] (CAA + […] human serum), the “MIC (μg/mL) against CFS-1292 in CAA + […] human serum” value was greater than 32 µg/mL. Besides, the “MIC Log10 (CFU/mL) Run #1” value in [9] is 4.1 Log10 (CFU/mL). Moreover, the “MIC Log10 (CFU/mL) Run #2” value in experiment [9] is 5.1 Log10 (CFU/mL). Further, the “MIC Log10 (CFU/mL) Run #3” value in experiment [9] is 4.5 Log10 (CFU/mL). Also, in [9], the “MIC Log10 (CFU/mL) Average” value is 4.6 Log10 (CFU/mL). In addition, the “Delta Log” value in experiment [9] was 0.3; in experiment [10], 0.5. The LPS binding result in [3] is “does not bind LPS”. In addition, the “% LPS Bound” value is 0.1% in experiment [3] (setting [15]); 0.1% in experiment [3] (peptide concentration 1 μg/mL); 0.1% in [3] (peptide concentration 2 μg/mL); 0.1% in experiment [3] (peptide concentration 4 μg/mL); 5.4% in experiment [3] (peptide concentration 8 μg/mL); 0.1% in experiment [3] (peptide concentration 16 μg/mL). In addition, the “% LPS Bound” value in experiment [3] (peptide concentration 32 μg/mL) came out at 0.1%; in experiment [3] (peptide concentration 64 μg/mL), 0.9%. For the same substance, the “Viable persister count after treatment (log10 CFU/mL)” value in [10] (setting [16]) was 4.4 Log10 (CFU/mL); in experiment [10] (setting [17]) it was 4.3 Log10 (CFU/mL); in experiment [10] (setting [18]), 3.1 Log10 (CFU/mL); in experiment [10] (average of 3 runs), 3.9 Log10 (CFU/mL). Moreover, the “45 hr MIC” value in experiment [13] is greater than 64 µg/mL.
Turning to PGLa, in [5], the “Minimal inhibitory concentration, Human Plasma” value was greater than 64 µg/mL and the “Minimal inhibitory concentration, Human Serum” value is greater than 64 µg/mL.
In the case of “Pediocin (KYYGNGVTCGKHSCSVDWGKATTCIINNGAMAWATGGHQGNHKC; Bacteriocin pediocin PA-1; UniProt P29430 19-62, looked up)”, in experiment [5], the “Minimal inhibitory concentration, Human Plasma” value was greater than 64 µg/mL and the “Minimal inhibitory concentration, Human Serum” value is greater than 64 µg/mL.
As for Protegrin 1, in experiment [5], the “Minimal inhibitory concentration, Human Plasma” value is 1 µg/mL and the “Minimal inhibitory concentration, Human Serum” value is 4 µg/mL.
Regarding daptomycin, the “eradication of catheter biofilm” value in [14] (first catheter sample, 4 hours at 37° C., Chp2-M1 10 μg/mL, CF-301 and daptomycin 1 μg/mL) was “did not”. Further, in [14] (treatment at 1 μg/mL), the “Log10 CFU/g for Catheter Sample #2 enumerated after 24 hours of incubation at 37 °C.” value came out at 3.72 Log10 CFU/g and the “Log10 CFU/g for Catheter Sample #3 enumerated after 24 hours of incubation at 37 °C.” value is listed as 4.15 Log10 CFU/g. Further, the “Log10 CFU/g for Catheter Sample #1 (enumerated after 18 hours of incubation at 37 °C.)” value in [14] (treatment at 1 μg/mL, 4 hours at 37° C.) stood at 3.66 Log10 CFU/g.
